The values below come from patent publication US20200253979A1, “THERAPEUTIC METHODS RELATING TO HSP90 INHIBITORS” (AI Therapeutics, Inc., priority 2017, published 2020).

In general, EC50 refers to the concentration at which the effect is half-maximal.

For series [1] the following is noted: cited from earlier work.
The next series relates to MV-4-11 cells (FLT3-ITD). Nature of the series: CellTiter-Glo cell viability (single agent and combination). As to conditions: MV-4-11, MPC-0767 1 μM, 72 hours. Type of series: cell-based. On the procedure:
Three cell lines which harbor FLT3-ITD were used for the drug combination studies (MV-4-11, MOLM-13, and MOLM-14).
Cells were treated with the drugs (single agent or combination) for 72 hours. Drug combination activity was determined by first measuring cell viability with CellTiter-Glo®, followed by the calculation of the EC50 corresponding to single agent activity, using the R DRC package (R Core Team, 2017). The combination index (CI) values were computed using the Chou-Talalay method (Chou T, Cancer Research., 2010 70(2): 440-6.), based on the viability of each drug alone and in combination, across all concentrations tested. In brief, CI was defined as: […]
Loss of function mutations of KDM6A are observed in FLT3-ITD AML (Garg et al., 2015 Blood 126 (22):2491-501). […] To therapeutically exploit this finding, we hypothesized that inhibiting EZH2, the histone H3K27 methyltransferase that functionally opposes KDM6A, would enhance sensitivity to MPC-0767. To test this hypothesis, a FLT3-ITD cell line (MV-4-11) was used and treated with either of the two clinical stage EZH2 inhibitors, EPZ-6438 and CPI-1205, at 8 different concentrations for 4 days. Following this time, cells were counted, reseeded and treated with 8 concentrations of EZH2 inhibitor alone, 8 concentrations of MPC-0767 alone, or the combination of the two (64 total combinations).
For orientation: In ATP-based viability assays light output follows the ATP content of the culture.

The subject of series [2] is BaF3 cells harboring EGFR exon20 V769_D770insASV. Nature of the series: CellTiter-Glo cell viability. Type of series: cell-based, murine. The source says: (§1) To determine whether MPC-0767 can also promote degradation of an EGFR exon20ins mutant, the BaF3 murine cell line was used (Warmuth et al., Curr Opin Oncol., 200719: 55-60). This cell line is dependent upon exogenous IL-3 for survival/growth but upon introduction of an oncogene, the cells no longer depend on exogenous IL-3, and instead survival is driven by the introduced oncogene. Thus, drugs that target the introduced oncogene will reduce BaF3 cell viability providing a mechanism to screen small molecules against relevant oncogenic mutations that arise in the clinic.
(§2) BaF3 cells harboring EGFR wild type (WT) or EGFR exon20 V769_D770insASV mutant were treated with increasing concentrations of MPC-0767 for 24 hours. After this time, cells were harvested for flow cytometry to assess cell surface EGFR expression (antibody for detection recognized both WT and mutant proteins). […] We further tested whether this finding translated to reduced survival in BaF3 cells expressing the EGFR mutant. Parental BaF3 cells (no mutant) or cells harboring EGFR exon20 V769_D770insASV were treated with increasing concentrations of MPC-0767 for 72 hours after which cell viability was determined using CellTiter-Glo®.

Another series deals with Parental BaF3 cells. Nature of the series: CellTiter-Glo cell viability. Type of series: cell-based, murine. The note with it: Mus musculus; parental BaF3, 72 hours.
Source text: as §1, §2

Series [3] relates to BaF3 cells harboring FLT3-ITD. Nature of the series: CellTiter-Glo cell viability. Type of series: cell-based, murine. As to conditions: Mus musculus, 72 hours. On the procedure:
After this time cell viability was determined using CTG and EC50 values determined.
EC50 values were calculated using equation 1 (as described above).
BaF3 cells require the supplementation of IL-3 to activate the IL-3 receptor for growth. However, in BaF3 cells transfected with FLT3-ITD, cells no longer require IL3 as survival is solely driven by oncogenic FLT3 signaling.

The subject of the next series is THP1 (THP-1) cells. Nature of the series: CellTiter-Glo cell viability (single agent and combination). The note with it: THP1, 72 h. Type of series: cell-based.
Another series concerns MOLM16 cells. Nature of the series: CellTiter-Glo cell viability. Type of series: cell-based. The note with it: MOLM16, 72 h.
Series [4] concerns OCIAML2 (OCI-AML-2) cells. Nature of the series: CellTiter-Glo cell viability (single agent and combination).
Procedure: To determine whether MPC-0767 is efficacious against non-FLT3-ITD AML cells, we tested a panel of FLT3-wild type (FLT3-WT) AML cell lines and primary AML blasts for sensitivity to MPC-0767. Cells were treated with MPC-0767 for 72 hours before determining cell viability using the CellTiter-Glo® assay. […] To test whether the combination of MPC-0767 was synergistic with ATO, we tested a panel of AML cell lines. The cell lines include those harboring FLT3-ITD (MOLM-13, MOLM-14 and MV-4-11) or FLT3 WT (ME-1, THP-1, OCI-AML-2, HL60, NOMO-1, TUR and ML-2).
In series [5] the test system is phospho-ERK (pERK) in MOLM-13 cells. Nature of the series: Phospho-ERK level. Type of series: cell-based, human. As to conditions: MPC-0767 800 nM, ATO 625 nM or combination, 24 hours. The text has this: We next explored whether the synergistic activity of MPC-0767 and ATO was due to a more complete abrogation of FLT3-ITD oncogenic signaling. […] After this time cells were harvested for the assessment of cell surface FLT3 expression by flow cytometry. To additionally measure the effects of abrogating FLT3, we assessed phospho-ERK (pERK) and phospho-S6 (pS6), as these are two known downstream effectors.

Series [6] concerns FLT3 mutants in BaF3 cells. Nature of the series: Cell surface FLT3 in transfected BaF3 cells by flow cytometry. Type of series: cell-based, murine. The note with it: BaF3, cell surface expression, 24 hours. On the procedure: (§3) We next sought to determine whether MPC-0767 can also promote the degradation of other FLT3 mutants that have been reported to confer resistance to FLT3 inhibitors. To do this, we again utilized the BaF3 murine cell line into which the following FLT3 mutants were transfected: FLT3 wild-type, FLT3-ITD, D835V, FLT3-ITD D835V, D835Y, FLT3-ITD D835Y, D835H, FLT3-ITD D835H, F691L, or FLT3-ITD F691L.
(§4) After puromycin selection, cells were treated with increasing concentrations of MPC-0767 (20-10000 nM) for 24 hours and then stained for cell surface expression of FLT3 (and mutants) and the median signal expression was quantified by flow cytometry.
On the technique in general: A flow cytometer gives signals particle by particle.

A further series concerns FLT3 WT in BaF3 cells. Described as above. Type of series: cell-based, murine. The note with it: BaF3, 20-10000 nM, 24 hours. The protocol:
as §3, §4

Where only a bound is given, the exact number is not on record here.

Consider `C[C@H](N)C(=O)O[C@@H](C)C(=O)N1CCC(CCn2c(Sc3cc4c(cc3Br)OCO4)nc3c(N)ncnc32)CC1` [MPC-0767], for which the aqueous solubility result in series [1] is “improved aqueous solubility”. In addition, in the series with MV-4-11 cells (FLT3-ITD), the “viability of KDM6A sgRNA cells vs non-targeting sgRNA” value is “conferred resistance to MPC-0767”. For the same compound, the EC50 in series [2] (Mus musculus, BaF3 EGFR exon20 V769_D770insASV, 72 hours) is 236 nM; in the series with Parental BaF3 cells, 753 nM; in series [3] it was 497 nM; in the series on THP1 (THP-1) cells (Homo sapiens, THP-1), over 10000 nM; in the series with MOLM16 cells, 367 nM; in series [4] (Homo sapiens, OCI-AML2, 72 h), 633 nM. The “sensitivity to MPC-0767 relative to parental cells” value in series [2] (mutant vs parental BaF3, 72 hours) is reported as “approximately 3 times”. Besides, the “MPC-0767 Sensitivity” value in the series on THP1 (THP-1) cells is “Resistant (EC50 values above 1 μM considered resistant)”; with MOLM16 cells it was “Sensitive (cell lines having EC50 values below 1 μM were considered to be sensitive)”; in series [4] (OCIAML2, 72 h) it was “Sensitive (cell lines having EC50 values below 1 μM were considered to be sensitive)”. In addition, the pERK level entry in [5] is listed as “mildly reduced”. Besides, the “potency against FLT3 mutants compared to FLT3 WT” value in series [6] is listed as “approximately 5 ×”. In addition, in the series on FLT3 WT in BaF3 cells, the “cell surface expression of FLT3 WT” value is listed as “reduced cell surface expression of FLT3 WT”.
